According to patent US4140764A, “β-Lactamase inhibitors and process for their preparation” (priority 1975, dated 1979):
Counter-ions that a name gives are not always drawn.

Legend:
Escherichia coli B 11 = experiment: Antibacterial synergism, microtitre method (Example 42); format: cell-based; settings: B11, Table 5, inoculum 0.5 × 10^-2, read-out: Minimum Inhibitory Concentration, compound alone
Klebsiella aerogenes A = experiment: as above; format: cell-based; settings: Table 8, strain A
Enterobacter cloacae = experiment: as above; format: cell-based; settings: Table 5, inoculum 0.5 × 10^-2, read-out: Minimum Inhibitory Concentration, compound alone
[1] = test system: Klebsiella Aerogenes E 70; experiment: as above; format: cell-based; settings: Table 8, strain E 70
Klebsiella Aerogenes 62 = experiment: as above; format: cell-based; settings: Table 8, strain 62
[2] = test system: Staphylococcus aureus (Russell); experiment: Synergism of clavulanic acid methyl ester, M.I.C. (Example 32); format: cell-based
Proteus mirabilis C889 = experiment: as above; format: cell-based
[3] = molecular target: T1, β-lactamase of E. coli JT410 (Escherichia coli, UniProt P00811); experiment: standard enzyme inhibitory assay (Example 49); format: biochemical; settings: read-out: I50 (converted)
T1 construct: E. coli JT410; endogenous in cells; host or cells: Escherichia coli JT410

[4] = test system: Staphylococcus aureus (Russell); experiment: Antibacterial synergism, microtitre method (Example 42); format: cell-based
[5] = Hydrolysis of the methyl ester to clavulanic acid in pH 7 buffer; format: physicochemical
Text: Many esters of clavulanic acid differ from analagous esters of penicillins or cephalosporins in that they show an enhanced tendency to hydrolyze to clavulanic acid under mild conditions. […] Esters which undergo some hydrolysis under mild conditions are included within the formula (IX): [drawing 8] wherein R^1 is a hydrocarbon group of 1- 9 carbon atoms optionally substituted by halogen, lower alkoxy, hydroxyl or optionally salted basic groups of the formula NR^2 R^3 wherein R^2 is a hydrogen atom or a lower alkyl group, R^3 is a hydrogen atom or a lower alkyl group or is attached to R^2 so that NR^2 R^3 is a 5- or 6- membered ring.
The reaction was followed by paper chromatography (bioautographic system). Using the butanol/ethanol/water system to follow the reaction over a period of 2 hours the zone of the methyl ester at Rf 0.79 decreased in size as the zone of clavulanic acid at Rf 0.12 increased.

Staphylococcus aureus = experiment: Antibacterial synergism, microtitre method (Example 42); format: cell-based; settings: Table 6

T1 sequence (P00811 20-377): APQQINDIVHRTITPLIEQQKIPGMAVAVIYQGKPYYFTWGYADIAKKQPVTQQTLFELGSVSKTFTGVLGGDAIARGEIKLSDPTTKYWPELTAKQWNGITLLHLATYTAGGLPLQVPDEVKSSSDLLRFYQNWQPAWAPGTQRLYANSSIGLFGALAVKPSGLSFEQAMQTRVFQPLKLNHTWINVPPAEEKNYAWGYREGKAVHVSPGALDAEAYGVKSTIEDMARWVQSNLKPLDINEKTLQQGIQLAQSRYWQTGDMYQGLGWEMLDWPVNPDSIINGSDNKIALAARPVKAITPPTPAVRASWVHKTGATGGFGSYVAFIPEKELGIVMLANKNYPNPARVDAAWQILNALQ

CC1(C)S[C@@H]2[C@H](NC(=O)[C@H](N)c3ccccc3)C(=O)N2[C@H]1C(=O)O [ampicillin]
MIC (Escherichia coli B 11): > 500 µg/mL | MIC of Ampicillin + 5 μg/ml of Benzyl Ester of clavulanic acid (Klebsiella aerogenes A): 1.9 µg/mL | MIC of Ampicillin + 5 μg/ml of Methyl Ester of clavulanic acid (Klebsiella aerogenes A): 1.9 µg/mL | MIC (Enterobacter cloacae): 250 µg/mL | MIC of Ampicillin + 5 μg/ml of Benzyl Ester of clavulanic acid [1]: 3.9 µg/mL | MIC of Ampicillin + 5 μg/ml of Methyl Ester of clavulanic acid [1]: 3.9 µg/mL | MIC of Ampicillin + 5 μg/ml of Benzyl Ester of clavulanic acid (Klebsiella Aerogenes 62): 3.9 µg/mL | MIC of Ampicillin + 5 μg/ml of Methyl Ester of clavulanic acid (Klebsiella Aerogenes 62): 3.9 µg/mL | M.I.C. of antibiotic in the presence of 1.0 μg/ml. clavulanic acid methyl ester [2]: < 0.4 µg/mL | M.I.C. of ampicillin in the presence of 5 μg/ml. clavulanic acid methyl ester (Proteus mirabilis C889): 31 µg/mL

O=C(COc1ccccc1)OC/C=C1\O[C@@H]2CC(=O)N2[C@H]1C(=O)OCc1ccccc1 [benzyl phenoxyacetylclavulanate, Benzyl Phenoxyacetylclavulanate]
IC50 [3]: 3.54 µM

O=C(Cc1cccs1)N[C@@H]1C(=O)N2C(C(=O)[O-])=C(C[n+]3ccccc3)CS[C@H]12 [cephaloridine]
Minimum Inhibitory Concentration of cephaloridine with synergist added at 1 μg/ml instead of 5 μg/ml [4]: Same value

COC(=O)[C@H]1/C(=C/CO)O[C@@H]2CC(=O)N21 [clavulanic acid methyl ester]
conversion of the ester to clavulanic acid ([5]; 1 mg/ml, 37° C., 0.05M phosphate buffer pH 7, followed over 2 hours): Slow conversion | hydrolysis to clavulanic acid ([5]; water buffered to pH7): slowly hydrolyze

O=C(O)[C@H]1/C(=C/CO)O[C@@H]2CC(=O)N21 [clavulanic acid sodium salt, 3-(β-hydroxyethylidine)-7-oxo-4-oxa-1-azabicyclo [3,2,0]heptane-2-carboxylic acid sodium salt]
Minimum Inhibitory Concentration, compound alone ([4]; Table 6): 15 µg/mL | Minimum Inhibitory Concentration, compound alone (Staphylococcus aureus): 62 µg/mL
